For one test, the target named is human cyclin B-CDK1 (Homo sapiens, UniProt P06493). Nature of the test: CDK1 HTRF kinase assay (Ki measurement). Conditions: ATP at 3x Km. It is filed as biochemical. How it is done: (§1) To determine inhibition of Cdk4, Cdk2 and Cdk1 activity, kinase assays were conducted using FlashPlate™ assays (NEN™-Life Science Products). FlashPlate assays were performed using recombinant human cyclin B-CDK1, human cyclin E-CDK2 or human cyclin D1-CDK4 complexes. GST-cyclinE (GST-cycE), CDK2, GST-cyclinB (GST-cycB), CDK1, GST-CDK4 and cyclin D1 (cycD1) cDNA clones in baculovirus vectors were provided by Dr. W. Harper at the Baylor College of Medicine, Houston, Tex.
human cyclin B-CDK1, sequence (P06493 whole entry): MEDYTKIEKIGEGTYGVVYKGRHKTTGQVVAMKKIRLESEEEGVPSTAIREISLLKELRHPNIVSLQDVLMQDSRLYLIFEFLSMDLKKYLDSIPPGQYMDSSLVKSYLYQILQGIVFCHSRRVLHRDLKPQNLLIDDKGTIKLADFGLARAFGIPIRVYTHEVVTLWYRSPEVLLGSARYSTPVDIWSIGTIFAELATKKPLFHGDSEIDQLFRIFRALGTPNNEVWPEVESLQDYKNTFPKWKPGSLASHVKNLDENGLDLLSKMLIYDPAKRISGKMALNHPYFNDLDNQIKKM
human cyclin B-CDK1, sequence (P14635 whole entry partner): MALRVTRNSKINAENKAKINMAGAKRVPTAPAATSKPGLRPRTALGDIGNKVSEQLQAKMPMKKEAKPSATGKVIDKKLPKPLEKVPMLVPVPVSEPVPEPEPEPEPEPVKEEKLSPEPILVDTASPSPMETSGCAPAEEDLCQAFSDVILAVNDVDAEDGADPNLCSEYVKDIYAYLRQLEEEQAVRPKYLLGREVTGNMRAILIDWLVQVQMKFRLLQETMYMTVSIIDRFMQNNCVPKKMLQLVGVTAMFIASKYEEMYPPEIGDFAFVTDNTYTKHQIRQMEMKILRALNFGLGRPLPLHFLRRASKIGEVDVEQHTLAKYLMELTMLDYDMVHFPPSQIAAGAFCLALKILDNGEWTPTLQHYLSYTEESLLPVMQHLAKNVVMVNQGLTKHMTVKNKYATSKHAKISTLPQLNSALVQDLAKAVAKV
(§2) Alternatively, inhibition activity may be measured using Ki. […] These were done in 96-well format and read in 384-well plate format. The assays were run at 3× their respective Kms for ATP.
Twenty microliters were added to the wells of a 96-well plate. […] Blank wells without CDK4 were included. The plates were incubated at 37° C. for 30 minutes with shaking. […] After 30 minutes at 37° C., 15 μl/well of 3 nM Lance-Eu-W1024 labeled anti-rabbit IgG and 60 nM Allophycocyanin conjugated anti-His6 (PerkinElmer Life Sciences) in 25 mM Hepes, pH 7.0, 0.5 mg/ml BSA were added. Following a one hour incubation at 37 deg C., 35 μl of each well, in duplicate, were transferred to 384-well black plates. The plates were read using either ViewLux or Victor V readers (PerkinElmer Life Sciences) using an excitation wavelength of 340 nm and dual emission wavelengths of 615 nm and 665 nm. […] For ATP competitive inhibitors, the Ki values were calculated according to the following equation: Ki=IC50/(1+S/Km) where S refers to the substrate concentration and Km refers to the Michaelis-Menten constant.
(§3) The CDK1 and CDK2 assays were similarly run except for small differences in reagent and protein concentrations:
The compound and enzyme buffers for both assays contained 10 mM MgCl2. […] CDK1 at a reagent concentration of 0.15 ng/ul and CDK2 at a reagent concentration of 0.06 ng/ul were used.
In general terms: Time-resolved FRET reads energy transfer from a long-lived donor to a nearby acceptor.

The target in the next test is human cyclin D1-CDK4 (Homo sapiens, UniProt P11802). Nature of the test: CDK4 HTRF kinase assay (Ki measurement). Format: biochemical. Conditions: ATP at 3x Km. How it is done:
To determine inhibition of Cdk4, Cdk2 and Cdk1 activity, kinase assays were conducted using FlashPlateTM assays (NENTM-Life Science Products). […] W. Harper at the Baylor College of Medicine, Houston, Tex. Proteins were co-expressed in High FiveTM insect cells and the complex was purified on glutathione Sepharose resin (Pharmacia, Piscataway, N.J.) as previously described (Harper, J. W. et al. Cell 1993, 75, 805-816). A 6×-Histidine tagged […]) was used as the substrate for the cycD1-CDK4, cycB-CDK1 and the cycE-CDK2 assays (the expression plasmid was provided by Dr. Veronica Sullivan, Department of Molecular Virology, Roche Research Centre, Welwyn Garden City, United Kingdom). The Rb protein is a natural substrate for phosphorylation by CDK4, CDK2 and CDK1 (see Herwig and Strauss Eur. J. Biochem. Vol. 246 (1997) pp. 581-601 and the references cited therein). Alternatively, inhibition activity may be measured using Ki. Using the protein constructs described above in Example 19A above, CDK1, CDK2, and CDK4 HTRF assays were set up. These were done in 96-well format and read in 384-well plate format. The assays were run at 3× their respective Kms for ATP. In the CDK4 assay, test compounds were diluted to 3× their final concentrations in 25 mM Hepes, pH 7.0, 6.25 mM MgCl2, 1.5 mM DTT, 135 μM ATP. The DMSO concentration was no greater than 4.76%. Twenty microliters were added to the wells of a 96-well plate. The kinase reaction was initiated by the addition of 40 μl/well of a solution containing 0.185 μM Rb and 2.25 μg/ml CDK4 in 25 mM Hepes, pH 7.0, 6.25 mM MgCl2, 0.003% Tween-20, 0.3 mg/ml BSA, 1.5 mM DTT. Blank wells without CDK4 were included. The plates were incubated at 37° C. for 30 minutes with shaking. The kinase reaction was terminated by the addition of 15 μl/well of 1.6 uM anti-phospho-Rb ([…]) antibody (Cell Signaling Inc.) in 25 mM Hepes, pH 7.0, 24 mM EDTA, 0.2 mg/ml BSA. After 30 minutes at 37° C., 15 μl/well of 3 nM Lance-Eu-W1024 labeled anti-rabbit IgG and 60 nM Allophycocyanin conjugated anti-His6 (PerkinElmer Life Sciences) in 25 mM Hepes, pH 7.0, 0.5 mg/ml BSA were added. Following a one hour incubation at 37 deg C., 35 μl of each well, in duplicate, were transferred to 384-well black plates. The plates were read using either ViewLux or Victor V readers (PerkinElmer Life Sciences) using an excitation wavelength of 340 nm and dual emission wavelengths of 615 nm and 665 nm. IC50 values (the concentration of test compounds reducing the assay control fluorescence read-out by 50%) were first calculated from net readings at 665 nm, normalized for europium readings at 615 nm. For ATP competitive inhibitors, the Ki values were calculated according to the following equation: […]

The test system of test [1] is HCT116 colorectal carcinoma cell line. Nature of the test: Tetrazolium dye proliferation assay (MTT assay). Format: cell-based. Conditions: Homo sapiens, HCT-116, HCT116 cells. On the procedure: Proliferation was evaluated by the tetrazolium dye assay according to the procedure of Denizot and Lang (Denizot, F. and Lang, R. J Immunol Methods 1986, 89, 271-277). The cell line used was HCT116, a colorectal carcinoma cell line obtained from the American Type Cell Culture Collection (ATCC; Rockville, Md.). The cells were grown in McCoy's 5A medium supplemented with 10% FCS and L-glutamine.
Cells were plated at the appropriate seeding density to give logarithmic growth over the course of the assay in a 96-well tissue culture plate. Plates were incubated overnight at 37° C. in a humidified incubator with 5% CO2. The next day, test compounds were serially diluted to four times the final concentration in the appropriate medium containing 1.2% DMSO. One-fourth final volume of each dilution was added in duplicate to the plates containing cells. The same volume of 1.2% DMSO in medium was added to a row of “control wells” such that the final concentration of DMSO in each well was 0.3%. Wells to which no cells were added served as the “blank.” Wells to which no inhibitor was added served as “no inhibitor control.” The plates were) returned to the incubator, and at set time points (determined by their growth curves) plates were analyzed as described below.
3-(4,5-dimethylthiazole-2-yl)-2,5-diphenyl-2H-tetrazolium bromide (thiazolyl blue; MTT; Sigma) was added to each well to yield a final concentration of 1 mg/ml. Plates were returned to the incubator for 2.5-3 hours at 37° C. The MTT-containing medium was removed and the resulting formazan metabolite was solubilized in 100% ethanol with shaking for 15 minutes at room temperature. Absorbance readings were taken in a microtiter plate reader (Dynatech and Molecular Devices plate readers were used interchangeably) at a wavelength of 570 nm with a 650 nm reference. Percent inhibition (% INH) is calculated by subtracting the absorbance of the blank well from all wells, then subtracting the ratio of the average absorbance of each test duplicate (SAVE) by the average of the controls (CAVE) from 1.00. The final number is then multiplied by 100 (% INH=(1.00−SAVE/CAVE)×100). The concentration at which 50% inhibition of cell proliferation is obtained (the IC50) is determined from the linear regression of a plot of the logarithm of the concentration versus percent inhibition.
A general note: Tetrazolium assays rely on reduction of a dye to a coloured formazan, in cell work by metabolically active cells.

The target of another test is human cyclin E-CDK2 (Homo sapiens, UniProt P24941). Nature of the test: CDK2 HTRF kinase assay (Ki measurement). It is filed as biochemical. On the procedure:
as §1, §2
Twenty microliters were added to the wells of a 96-well plate. […] Blank wells without CDK4 were included. The plates were incubated at 37° C. for 30 minutes with shaking. […] After 30 minutes at 37° C., 15 μl/well of 3 nM Lance-Eu-W1024 labeled anti-rabbit IgG and 60 nM Allophycocyanin conjugated anti-His6 (PerkinElmer Life Sciences) in 25 mM Hepes, pH 7.0, 0.5 mg/ml BSA were added. Following a one hour incubation at 37 deg C., 35 μl of each well, in duplicate, were transferred to 384-well black plates. The plates were read using either ViewLux or Victor V readers (PerkinElmer Life Sciences) using an excitation wavelength of 340 nm and dual emission wavelengths of 615 nm and 665 nm.
as §3
The compound and enzyme buffers for both assays contained 10 mM MgCl2.

Where [2] appears, read: HTRF assay, ATP at 3x Km, read-out: Ki CDK2.

Where two headings read alike, the source gives them in different places.

Usually Ki stands for a measure of affinity in units of concentration, obtained from inhibition or displacement. The term IC50 denotes the concentration at which inhibition is half-maximal.

human cyclin D1-CDK4, sequence (P11802 whole entry): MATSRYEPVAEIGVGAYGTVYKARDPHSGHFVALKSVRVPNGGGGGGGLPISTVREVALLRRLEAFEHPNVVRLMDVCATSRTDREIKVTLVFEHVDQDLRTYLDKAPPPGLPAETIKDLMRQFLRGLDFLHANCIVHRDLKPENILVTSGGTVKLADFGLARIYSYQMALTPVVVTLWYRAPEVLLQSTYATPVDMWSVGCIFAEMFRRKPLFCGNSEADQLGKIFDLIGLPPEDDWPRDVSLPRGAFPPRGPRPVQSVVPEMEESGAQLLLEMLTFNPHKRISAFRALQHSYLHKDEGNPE
human cyclin D1-CDK4, sequence (P24385 whole entry partner): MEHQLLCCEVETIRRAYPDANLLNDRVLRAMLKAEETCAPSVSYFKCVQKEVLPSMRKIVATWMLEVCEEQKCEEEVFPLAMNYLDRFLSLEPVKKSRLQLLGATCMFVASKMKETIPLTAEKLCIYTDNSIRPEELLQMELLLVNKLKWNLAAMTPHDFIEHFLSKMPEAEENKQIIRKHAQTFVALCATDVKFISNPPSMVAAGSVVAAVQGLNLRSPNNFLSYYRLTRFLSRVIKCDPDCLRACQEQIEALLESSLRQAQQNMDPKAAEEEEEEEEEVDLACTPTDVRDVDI

`COc1ccc(F)c(F)c1C(=S)c1cnc(NC2CCN(S(C)(=O)=O)CC2)nc1N` [Example 1, [4-Amino-2-(1-methanesulfonyl-piperidin-4-ylamino)-pyrimidin-5-yl]-(2,3-difluoro-6-methoxy-phenyl)-methanethione]: the Ki at human cyclin B-CDK1 came out at 0.13 nM; on human cyclin D1-CDK4, 0.17 nM. Besides, 20 nM corresponded to half-maximal inhibition in test [1] (IC50).

As for `COc1ccc(F)c(F)c1C(=S)c1cnc(N[C@H]2CC[C@H](NS(C)(=O)=O)CC2)nc1N` [Example 2, N-{4-[4-Amino-5-(2,3-difluoro-6-methoxy-thiobenzoyl)-pyrimidin-2-ylamino]-cyclohexyl}methanesulfonamide], the Ki at human cyclin B-CDK1 was found to be 0.27 nM; on human cyclin E-CDK2 (setting [2]) it was 0.18 nM; at human cyclin D1-CDK4, 0.6 nM. The molecule also showed an IC50 in test [1] of 12 nM.

Take `COc1ccc(F)c(F)c1C(=S)c1cnc(N[C@H]2CC[C@H](N(C)S(C)(=O)=O)CC2)nc1N` [Example 3, N-{4-[4-Amino-5-(2,3-difluoro-6-methoxy-thiobenzoyl)-pyrimidin-2-ylamino]-cyclohexyl}-N-methylmethanesulfonamide]: the inhibitory constant (Ki) at human cyclin B-CDK1 turned out to be 0.42 nM; at human cyclin E-CDK2 (setting [2]), 0.27 nM; at human cyclin D1-CDK4 it was 1.33 nM. In addition, 13 nM corresponded to half-maximal inhibition in test [1] (IC50).

For `COc1ccc(F)c(F)c1C(=S)c1cnc(NC2CCN(S(N)(=O)=O)CC2)nc1N` [Example 4, 4-[4-Amino-5-(2,3-difluoro-6-methoxy-thiobenzoyl)-pyrimidin-2-ylamino]-piperidine-1-sulfonic acid amide], the values for the Ki on human cyclin B-CDK1, on human cyclin E-CDK2 (setting [2]) and at human cyclin D1-CDK4 were less than 3 nM, less than 1 nM and less than 1 nM, respectively. This molecule also had an IC50 in test [1] of 3 nM.

`COc1ccc(F)cc1C(=S)c1cnc(NC2CCN(S(C)(=O)=O)CC2)nc1N` [Example 5, [4-Amino-2-(1-methanesulfonyl-piperidin-4-ylamino)-pyrimidin-5-yl]-(5-fluoro-2-methoxy-phenyl)-methanethione]: the figures for the Ki at human cyclin B-CDK1, at human cyclin E-CDK2 and at human cyclin D1-CDK4 were less than 10 nM, 1.3 nM and 1.3 nM, respectively. This molecule came in with an IC50 in test [1] of 81 nM.

On to `CS(=O)(=O)N1CCC(Nc2ncc(C(=S)c3c(F)c(F)cc4ccoc34)c(N)n2)CC1` [Example 6, [4-Amino-2-(1-methanesulfonyl-piperidin-4-ylamino)-pyrimidin-5-yl]-(5,6-difluoro-benzofuran-7-yl)-methanethione], for which the Ki at human cyclin B-CDK1 was 3 nM; at human cyclin E-CDK2 (setting [2]), 0.1 nM; at human cyclin D1-CDK4 it was 0.26 nM. The same molecule yielded an IC50 in test [1] of 13 nM.

With `CS(=O)(=O)N1CCC(Nc2ncc(C(=S)c3c(Cl)ccc(F)c3F)c(N)n2)CC1` [Example 13, [4-Amino-2-(1-methanesulfonyl-piperidin-4-ylamino)-pyrimidin-5-yl]-(6-chloro-2,3-difluoro-phenyl)-methanethione], the Ki at human cyclin B-CDK1 is 3 nM; on human cyclin E-CDK2 (setting [2]), 1 nM; on human cyclin D1-CDK4 it was 3 nM. In test [1], this molecule gave an IC50 of 176 nM.

In the case of `COc1ccc(F)c(F)c1C(=S)c1cnc(Nc2ccc(S(N)(=O)=O)cc2)nc1N` [Example 14, 4-[4-Amino-5-(2,3-difluoro-6-methoxy-thiobenzoyl)-pyrimidin-2-ylamino]-benzenesulfonamide], the figures for the Ki at human cyclin B-CDK1, at human cyclin E-CDK2 (setting [2]) and on human cyclin D1-CDK4 were 3 nM, 1 nM and 3 nM, respectively. Further, the IC50 in test [1] is 32 nM.

As for `CS(=O)(=O)N1CCC(Nc2ncc(C(=S)c3c(F)cccc3F)c(N)n2)CC1` [Example 15, [4-Amino-2-(1-methanesulfonyl-piperidin-4-ylamino)-pyrimidin-5-yl]-(2,6-difluoro-phenyl)-methanethione], the results for the Ki on human cyclin B-CDK1, at human cyclin E-CDK2 and at human cyclin D1-CDK4 were 3 nM, 1 nM and 1 nM, respectively. Further, 171 nM corresponded to half-maximal inhibition in test [1] (IC50).

The values are drawn from US7705009B2, “4-aminopyrimidine-5-thione derivatives” (Hoffman-La Roche Inc., priority 2005, dated 2010).
